From patent US10640544B2, “Antibody-coupled cyclic peptide tyrosine tyrosine compounds as modulators of neuropeptide Y receptors” (JANSSEN PHARMACEUTICA NV, priority 2016, dated 2020)

Legend:
[1] = Weight loss in diet-induced obese mice: chronic dosing (body weight, fed blood glucose); assay type: in vivo, mouse; settings: DIO mice, after 8 days of treatment; 0.3 nmol/kg s.c. every day
Description: (§1) Compound 1 was evaluated for its ability to reduce foot intake and body weight and improve glucose homeostasis on repeat dosing in male DIO C57Bl/6 mice over a period of 8 days. Male DIO C57BL/6N mice (20 weeks of age, 14 weeks on high fat diet) were obtained from Taconic Laboratory. […] Animals were acclimated to the facility for at least one week prior to the start of the experiment.
(§2) The day prior to dosing, mice were grouped based on individual body weights. At 3:00-4:[…] for each of the next 8 days, animals and food intake were weighed. […] After 8 days, mice are fasted for 5 hours and then given a 2 g/kg bolus of glucose orally at t=0. At t=0, 30, 60, 90, and 120 minutes post glucose challenge blood glucose is measured and at t=0, 30, and 90 minutes blood in drawn to measure plasma insulin. […] All data are presented as the mean±SEM (FIG. 7, FIG. 8, and Tables 8-11).

[2] = OGTT in DIO mice after 8 days of treatment (blood glucose, insulin); assay type: in vivo, mouse; settings: 8 days treatment, 0.3 nmol/kg s.c. every day
Description: as §1, §2

[3] = Single dose effect on food intake and body weight in Sprague-Dawley rats; assay type: in vivo, rat; parameters: body weight change: unit not given here; settings: single dose 0.3 nmol/kg s.c.
Description: Compound 1 was evaluated for its ability to reduce foot intake and body weight in Sprague-Dawley after a single dose. The animals were obtained from Charles River Labs (Wilmington, Mass.) at 200-225 g body weight and used within one week of delivery. They were housed one per cage on alpha dry bedding and a plastic tube for enrichment in a temperature-controlled room with 12-hour light/dark cycle. […] Animal weights were taken and recorded for each rat prior to dosing.
Body weights and food intake were measured 1, 2 and 3 days after dosing and the percentages of weight loss and reduction in food intake were calculated. […] All data are presented as the mean±SEM (Tables 18-20).

In the case of “Dulaglutide: long-acting GLP-1 receptor agonist, comparator”, the “fed Blood Glucose” value [1] is reported as 114 ± 13 mg/dL, the “blood glucose Delta AUC (OGTT)” value [2] is reported as 6668 ± 1846 mg/dl/120 min and the “blood glucose Total AUC (OGTT)” value [2] is reported as 15758 ± 1054 mg/dl/120 min. For the same substance, the “blood glucose during OGTT” value ([2]; 0 min after glucose challenge) was 76 ± 9 mg/dL, the “insulin during OGTT” value ([2]; 0 min after glucose challenge) was 0.6 ± 0.1 ng/mL and the “blood glucose during OGTT” value ([2]; 30 min after glucose challenge) was 151 ± 14 mg/dL. The “insulin during OGTT” value ([2]; 30 min after glucose challenge) was 1.7 ± 0.2 ng/mL, the “blood glucose during OGTT” value ([2]; 60 min after glucose challenge) was 174 ± 17 mg/dL and the “blood glucose during OGTT” value ([2]; 90 min after glucose challenge) was 104 ± 10 mg/dL. For the same substance, the “insulin during OGTT” value ([2]; 90 min after glucose challenge) was 0.7 ± 0.2 ng/mL, the “blood glucose during OGTT” value ([2]; 120 min after glucose challenge) was 119 ± 9 mg/dL and the “Total Food Consumption over three days” value [3] was 87.4 ± 2.0. The body weight change ([3]; Day 0) was 0.0 ± 0.0, the daily food intake ([3]; Day 0) was 26.6 ± 0.8 and the absolute body weight ([3]; Day 0, in g (unit assumed)) was 270.3 ± 3.0. The body weight change ([3]; Day 1) was 10.6 ± 1.6, the daily food intake ([3]; Day 1) was 27.3 ± 1.2 and the absolute body weight ([3]; Day 1, in g (unit assumed)) was 280.8 ± 4.2. For the same substance, the body weight change ([3]; Day 2) was 22.5 ± 0.8, the daily food intake ([3]; Day 2) was 30.0 ± 0.7 and the absolute body weight ([3]; Day 2, in g (unit assumed)) was 292.47 ± 3.6. The body weight change ([3]; Day 3) was 28.7 ± 0.6, the daily food intake ([3]; Day 3) was 30.1 ± 0.7 and the absolute body weight ([3]; Day 3, in g (unit assumed)) was 299.0 ± 3.3. It also gave a body weight change ([3]; Day −1 (relative to Day 0)) of −6.3 ± 0.8 and an absolute body weight ([3]; Day −1, in g (unit assumed)) of 264.0 ± 3.1.
